Test results published in patent US20260199282A1, “METHODS AND COMPOSITIONS FOR IMPROVING DRIVING PERFORMANCE” (priority 2022, published 2026).
Several values for one entry are separate records, joined by “and”; a condition that tells them apart may be missing. Identical values can stand only once. Like-named read-outs stand apart in the source and are kept apart here.

Experiments:
[1] = test system: participants with narcolepsy; experiment: Actual task effectiveness from PVT inverse reaction time, narcolepsy; type: in vivo, human; conditions: narcolepsy n=20
Method: Actual task effectiveness scores were calculated based on each participant's inverse reaction time (IRT [1/RT]) as described below. Sleep intervals derived from participants' actigraphy data—or from sleep diaries, if available, where actigraphy data were missing—were used to calculate modeled healthy control task effectiveness scores using the SAFTE. Participants evidenced good sleep hygiene, with minimal missing data. Task effectiveness was not modeled for participants missing data from the night before PVT testing. A SAFTE model effectiveness score of 100 indicates typical best performance during the day, based on a normal healthy population. SAFTE-FAST effectiveness predictions have been validated against IRT on the PVT [22].
Actual effectiveness scores were calculated as a percentage of a theoretical “best performance” from participants' average IRT per PVT trial (for all PVT test sessions, actual effectiveness=IRT/3.96×100). Average speed (IRT) on a PVT under optimal conditions—healthy sleepers taking the test at 11:00 in the morning, following an 8-hour sleep opportunity—is approximately 3.96 [40], and is assumed to represent an actual effectiveness score of 100 (a healthy participant's typical best performance). Repeated-measures analysis of variance (ANOVA) was used to estimate the effect of treatment on actual effectiveness over time.

[2] = test system: subjects with EDS due to OSA; design: species or system human; conditions: in vivo
[3] = test system: participants with narcolepsy; conditions: 12 weeks; 75 to 300 mg/day; cited from earlier work
[4] = test system: subjects with EDS due to OSA; experiment: Toronto Hospital Alertness Test (THAT), OSA study; type: in vivo, human
Method: THAT is analyzed using a mixed effect analysis of covariance (ANCOVA) model. The model includes baseline, treatment (JZP-110 and placebo), treatment period, treatment sequence as fixed effects and subject as a random effect. *p-value is nominal.
The THAT is a 10-item self-report questionnaire designed to measure perceived alertness in the preceding week (Shapiro 2006). The test was administered at baseline and prior to administration of study drug at Visits 4 and 5

[5] = test system: participants with narcolepsy; experiment: Safety / adverse events, narcolepsy study; type: in vivo, human
Method: Safety assessments included a physical examination, ECG, clinical laboratory tests, and assessment of adverse events (AEs).
Demographic, narcolepsy history, and safety data were summarized for the safety population, which included all participants who received ≥1 dose of study drug. No formal statistical testing was performed on these parameters.

[6] = test system: participants with narcolepsy; experiment: Toronto Hospital Alertness Test (THAT), narcolepsy study; type: in vivo, human; conditions: end of 7-day treatment period
Method: The Toronto Hospital Alertness Test (THAT) is a 10-item self-report questionnaire that measures perceived alertness over the previous week; scores can range from 0 to 50, with higher scores indicating greater alertness (Shapiro et al., 2006). This assessment was administered at the end of each 7-day treatment period to evaluate participants' perceived alertness throughout the treatment period.
Additional secondary efficacy measures (standard deviation of speed, number of lane drifts, and THAT scores) were analyzed using a similar ANOVA method as described for SDLP. No multiplicity adjustments were made in the efficacy analyses for multiple endpoints, and all p values are therefore nominal.

[7] = cited from earlier work
[8] = test system: participants with narcolepsy; conditions: 12 weeks; 75 to 300 mg/day; cited from earlier work; remark: listed apart in the source

NC(=O)OC[C@H](N)Cc1ccccc1 [Solriamfetol, (R)-2-amino-3-phenylpropyl carbamate]
Actual task effectiveness, LS mean (SE) ([1]; 2 hours post-dose): 96.07 (1.65) | Actual task effectiveness, LS mean difference ([1]; 2 hours post-dose): 10.41 | Actual task effectiveness, LS mean (SE) ([1]; 6 hours post-dose): 93.89 (1.65) | Actual task effectiveness, LS mean difference ([1]; 6 hours post-dose): 7.60 | Actual task effectiveness, LS mean (SE) ([1]; pre-dose): 86.06 (1.65) | Actual task effectiveness, LS mean difference ([1]; pre-dose): −6.16 | PVT errors, LS mean (SE) [2]: 1.24 (0.58) n/trial and 1.84 (0.58) n/trial | PVT inverse reaction time, LS mean (SE) [2]: 3.53 (0.04) 1/ms and 3.64 (0.04) 1/ms and 3.71 (0.04) 1/ms | PVT lapses, LS mean (SE) [2]: 3.82 (0.90) n/trial and 3.02 (0.90) n/trial and 3.98 (0.90) n/trial | Maintenance of Wakefulness Test, treatment difference from placebo (least squares mean) [3]: 2.6 to 10.1 min | THAT total score, LS mean difference, sensitivity analysis ([4]; PP population): 2.983 | THAT total score, LS mean (SE) ([4]; end of treatment period, mITT): 27.52 | THAT total score, mean (SD) ([4]; end of treatment period, mITT): 27.5 (7.60) | THAT total score, median ([4]; end of treatment period, mITT): 28.5 | THAT total score, LS mean (SE) ([4]; end of treatment period, mITT, listed as JZP-110): 27.52 (1.162) | THAT median total score, difference vs placebo ([4]; mITT): 4.0 | THAT total score, LS mean difference (JZP-110 − Placebo) ([4]; mITT): 3.579 | serious or fatal TEAEs ([5]; in vivo): no serious or fatal TEAEs | participants experiencing a TEAE, n (%) ([5]; while on solriamfetol): 17 (74%) | discontinuation due to AEs ([5]; while taking solriamfetol): No participant discontinued | THAT score, LS mean (SE) [6]: 34.0 (1.4) | THAT score, LS mean difference solriamfetol vs placebo [6]: 7.1 | mean half-life ([7]; fasting conditions): 5.9 h | median time to peak plasma concentration ([7]; fasting conditions): 2 h | mean half-life ([7]; fed conditions): 6.1 h | median time to peak plasma concentration ([7]; fed conditions): 3 h | Epworth Sleepiness Scale, treatment difference from placebo (least squares mean) [8]: −2.2 to −4.7 points
